Data as given in PubChem BioAssay (NCI).
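A five-concentration, 48-hour dose response in 96-well plates underlies each endpoint, interpolated linearly between surrounding concentrations. GI50: concentration for 50% inhibition of growth. TGI is the concentration that stops growth completely.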

Key:
Experiment in all cases: NCI tumour cell line growth inhibition, 48 h
786-0 renal = test system: 786-0 renal
A498 renal = test system: A498 renal
A549 NSCLC = test system: A549 NSCLC
ACHN renal = test system: ACHN renal
BT-549 breast = test system: BT-549 breast
CAKI-1 renal = test system: CAKI-1 renal
CCRF-CEM leukemia = test system: CCRF-CEM leukemia
COLO 205 colon = test system: COLO 205 colon
DU-145 prostate = test system: DU-145 prostate
EKVX NSCLC = test system: EKVX NSCLC
HCC-2998 colon = test system: HCC-2998 colon
HCT-116 colon = test system: HCT-116 colon
HCT-15 colon = test system: HCT-15 colon
HL-60(TB) leukemia = test system: HL-60(TB) leukemia
HOP-62 NSCLC = test system: HOP-62 NSCLC
HOP-92 NSCLC = test system: HOP-92 NSCLC
HS 578T breast = test system: HS 578T breast
HT29 colon = test system: HT29 colon
IGROV1 ovarian = test system: IGROV1 ovarian
K-562 leukemia = test system: K-562 leukemia
KM12 colon = test system: KM12 colon
LOX IMVI melanoma = test system: LOX IMVI melanoma
M14 melanoma = test system: M14 melanoma
MALME-3M melanoma = test system: MALME-3M melanoma
MCF7 breast = test system: MCF7 breast
MDA-MB-231 breast = test system: MDA-MB-231 breast
MDA-MB-435 = test system: MDA-MB-435
MOLT-4 leukemia = test system: MOLT-4 leukemia
NCI-H226 lung = test system: NCI-H226 lung
NCI-H23 lung = test system: NCI-H23 lung
NCI-H460 lung = test system: NCI-H460 lung
NCI-H522 lung = test system: NCI-H522 lung
NCI/ADR-RES ovarian = test system: NCI/ADR-RES ovarian
OVCAR-3 ovarian = test system: OVCAR-3 ovarian
OVCAR-4 ovarian = test system: OVCAR-4 ovarian
OVCAR-5 ovarian = test system: OVCAR-5 ovarian
OVCAR-8 ovarian = test system: OVCAR-8 ovarian
PC-3 prostate = test system: PC-3 prostate
RPMI-8226 leukemia = test system: RPMI-8226 leukemia
RXF 393 renal = test system: RXF 393 renal
SF-268 CNS = test system: SF-268 CNS
SF-295 CNS = test system: SF-295 CNS
SF-539 CNS = test system: SF-539 CNS
SK-MEL-2 melanoma = test system: SK-MEL-2 melanoma
SK-MEL-28 melanoma = test system: SK-MEL-28 melanoma
SK-MEL-5 melanoma = test system: SK-MEL-5 melanoma
SK-OV-3 ovarian = test system: SK-OV-3 ovarian
SN12C renal = test system: SN12C renal
SNB-19 CNS = test system: SNB-19 CNS
SNB-75 CNS = test system: SNB-75 CNS
SR leukemia = test system: SR leukemia
SW-620 colon = test system: SW-620 colon
T-47D breast = test system: T-47D breast
TK-10 renal = test system: TK-10 renal
U251 CNS = test system: U251 CNS
UACC-257 melanoma = test system: UACC-257 melanoma
UACC-62 melanoma = test system: UACC-62 melanoma
UO-31 renal = test system: UO-31 renal

Compound: CCOC(=O)/C=C1/SC(N2CCCCC2)C(=O)N1CC (stereo unspecified)
- GI50 (786-0 renal): > 100 µM
- TGI (786-0 renal): > 100 µM
- GI50 (A498 renal): > 100 µM
- TGI (A498 renal): > 100 µM
- GI50 (A549 NSCLC): > 100 µM
- TGI (A549 NSCLC): > 100 µM
- GI50 (ACHN renal): > 100 µM
- TGI (ACHN renal): > 100 µM
- GI50 (BT-549 breast): > 100 µM
- TGI (BT-549 breast): > 100 µM
- GI50 (CAKI-1 renal): > 100 µM
- TGI (CAKI-1 renal): > 100 µM
- GI50 (CCRF-CEM leukemia): > 100 µM
- TGI (CCRF-CEM leukemia): > 100 µM
- GI50 (COLO 205 colon): > 100 µM
- TGI (COLO 205 colon): > 100 µM
- GI50 (DU-145 prostate): > 100 µM
- TGI (DU-145 prostate): > 100 µM
- GI50 (EKVX NSCLC): > 100 µM
- TGI (EKVX NSCLC): > 100 µM
- GI50 (HCC-2998 colon): > 100 µM
- TGI (HCC-2998 colon): > 100 µM
- GI50 (HCT-116 colon): > 100 µM
- TGI (HCT-116 colon): > 100 µM
- GI50 (HCT-15 colon): > 100 µM
- TGI (HCT-15 colon): > 100 µM
- GI50 (HL-60(TB) leukemia): > 100 µM
- TGI (HL-60(TB) leukemia): > 100 µM
- GI50 (HOP-62 NSCLC): > 100 µM
- TGI (HOP-62 NSCLC): > 100 µM
- GI50 (HOP-92 NSCLC): > 100 µM
- TGI (HOP-92 NSCLC): > 100 µM
- GI50 (HS 578T breast): > 100 µM
- TGI (HS 578T breast): > 100 µM
- GI50 (HT29 colon): > 100 µM
- TGI (HT29 colon): > 100 µM
- GI50 (IGROV1 ovarian): > 100 µM
- TGI (IGROV1 ovarian): > 100 µM
- GI50 (K-562 leukemia): > 100 µM
- TGI (K-562 leukemia): > 100 µM
- GI50 (KM12 colon): > 100 µM
- TGI (KM12 colon): > 100 µM
- GI50 (LOX IMVI melanoma): > 100 µM
- TGI (LOX IMVI melanoma): > 100 µM
- GI50 (M14 melanoma): > 100 µM
- TGI (M14 melanoma): > 100 µM
- GI50 (MALME-3M melanoma): > 100 µM
- TGI (MALME-3M melanoma): > 100 µM
- GI50 (MCF7 breast): > 100 µM
- TGI (MCF7 breast): > 100 µM
- GI50 (MDA-MB-231 breast): > 100 µM
- TGI (MDA-MB-231 breast): > 100 µM
- GI50 (MDA-MB-435): > 100 µM
- TGI (MDA-MB-435): > 100 µM
- GI50 (MOLT-4 leukemia): > 100 µM
- TGI (MOLT-4 leukemia): > 100 µM
- GI50 (NCI-H226 lung): > 100 µM
- TGI (NCI-H226 lung): > 100 µM
- GI50 (NCI-H23 lung): > 100 µM
- TGI (NCI-H23 lung): > 100 µM
- GI50 (NCI-H460 lung): > 100 µM
- TGI (NCI-H460 lung): > 100 µM
- GI50 (NCI-H522 lung): > 100 µM
- TGI (NCI-H522 lung): > 100 µM
- GI50 (NCI/ADR-RES ovarian): > 100 µM
- TGI (NCI/ADR-RES ovarian): > 100 µM
- GI50 (OVCAR-3 ovarian): > 100 µM
- TGI (OVCAR-3 ovarian): > 100 µM
- GI50 (OVCAR-4 ovarian): > 100 µM
- TGI (OVCAR-4 ovarian): > 100 µM
- GI50 (OVCAR-5 ovarian): > 100 µM
- TGI (OVCAR-5 ovarian): > 100 µM
- GI50 (OVCAR-8 ovarian): > 100 µM
- TGI (OVCAR-8 ovarian): > 100 µM
- GI50 (PC-3 prostate): > 100 µM
- TGI (PC-3 prostate): > 100 µM
- GI50 (RPMI-8226 leukemia): > 100 µM
- TGI (RPMI-8226 leukemia): > 100 µM
- GI50 (RXF 393 renal): > 100 µM
- TGI (RXF 393 renal): > 100 µM
- GI50 (SF-268 CNS): > 100 µM
- TGI (SF-268 CNS): > 100 µM
- GI50 (SF-295 CNS): > 100 µM
- TGI (SF-295 CNS): > 100 µM
- GI50 (SF-539 CNS): > 100 µM
- TGI (SF-539 CNS): > 100 µM
- GI50 (SK-MEL-2 melanoma): > 100 µM
- TGI (SK-MEL-2 melanoma): > 100 µM
- GI50 (SK-MEL-28 melanoma): > 100 µM
- TGI (SK-MEL-28 melanoma): > 100 µM
- GI50 (SK-MEL-5 melanoma): > 100 µM
- TGI (SK-MEL-5 melanoma): > 100 µM
- GI50 (SK-OV-3 ovarian): > 100 µM
- TGI (SK-OV-3 ovarian): > 100 µM
- GI50 (SN12C renal): > 100 µM
- TGI (SN12C renal): > 100 µM
- GI50 (SNB-19 CNS): > 100 µM
- TGI (SNB-19 CNS): > 100 µM
- GI50 (SNB-75 CNS): > 100 µM
- TGI (SNB-75 CNS): > 100 µM
- GI50 (SR leukemia): > 100 µM
- TGI (SR leukemia): > 100 µM
- GI50 (SW-620 colon): > 100 µM
- TGI (SW-620 colon): > 100 µM
- GI50 (T-47D breast): > 100 µM
- TGI (T-47D breast): > 100 µM
- GI50 (TK-10 renal): > 100 µM
- TGI (TK-10 renal): > 100 µM
- GI50 (U251 CNS): > 100 µM
- TGI (U251 CNS): > 100 µM
- GI50 (UACC-257 melanoma): > 100 µM
- TGI (UACC-257 melanoma): > 100 µM
- GI50 (UACC-62 melanoma): > 100 µM
- TGI (UACC-62 melanoma): > 100 µM
- GI50 (UO-31 renal): > 100 µM
- TGI (UO-31 renal): > 100 µM
